# Measured values: paper PMC10638440, “Structural basis of bile salt extrusion and small-molecule inhibition in human BSEP” (Nature Communications, 2023)
# Assays:
# [1] = biological target: T1, BSEP N996A (Homo sapiens, UniProt O95342, N996A); test: GBM-stimulated ATPase activity ([…] GBM); type: biochemical
# T1 construct: gene ABCB11; full-length
# [2] = biological target: T2, BSEP (Homo sapiens, UniProt O95342); test: cryo-EM structure of vanadate-trapped BSEP at […] Å; type: binding; design: gene ABCB11; full-length wild-type, nanodisc-reconstituted
# [3] = biological target: T3, BSEPE1244Q (Homo sapiens, UniProt O95342, E1244Q); test: cryo-EM structure at […] Å; type: binding
# T3 construct: gene ABCB11; full-length, nanodisc-reconstituted
# [4] = biological target: T2, BSEP; design: gene ABCB11
# T2 sequence (O95342 whole entry): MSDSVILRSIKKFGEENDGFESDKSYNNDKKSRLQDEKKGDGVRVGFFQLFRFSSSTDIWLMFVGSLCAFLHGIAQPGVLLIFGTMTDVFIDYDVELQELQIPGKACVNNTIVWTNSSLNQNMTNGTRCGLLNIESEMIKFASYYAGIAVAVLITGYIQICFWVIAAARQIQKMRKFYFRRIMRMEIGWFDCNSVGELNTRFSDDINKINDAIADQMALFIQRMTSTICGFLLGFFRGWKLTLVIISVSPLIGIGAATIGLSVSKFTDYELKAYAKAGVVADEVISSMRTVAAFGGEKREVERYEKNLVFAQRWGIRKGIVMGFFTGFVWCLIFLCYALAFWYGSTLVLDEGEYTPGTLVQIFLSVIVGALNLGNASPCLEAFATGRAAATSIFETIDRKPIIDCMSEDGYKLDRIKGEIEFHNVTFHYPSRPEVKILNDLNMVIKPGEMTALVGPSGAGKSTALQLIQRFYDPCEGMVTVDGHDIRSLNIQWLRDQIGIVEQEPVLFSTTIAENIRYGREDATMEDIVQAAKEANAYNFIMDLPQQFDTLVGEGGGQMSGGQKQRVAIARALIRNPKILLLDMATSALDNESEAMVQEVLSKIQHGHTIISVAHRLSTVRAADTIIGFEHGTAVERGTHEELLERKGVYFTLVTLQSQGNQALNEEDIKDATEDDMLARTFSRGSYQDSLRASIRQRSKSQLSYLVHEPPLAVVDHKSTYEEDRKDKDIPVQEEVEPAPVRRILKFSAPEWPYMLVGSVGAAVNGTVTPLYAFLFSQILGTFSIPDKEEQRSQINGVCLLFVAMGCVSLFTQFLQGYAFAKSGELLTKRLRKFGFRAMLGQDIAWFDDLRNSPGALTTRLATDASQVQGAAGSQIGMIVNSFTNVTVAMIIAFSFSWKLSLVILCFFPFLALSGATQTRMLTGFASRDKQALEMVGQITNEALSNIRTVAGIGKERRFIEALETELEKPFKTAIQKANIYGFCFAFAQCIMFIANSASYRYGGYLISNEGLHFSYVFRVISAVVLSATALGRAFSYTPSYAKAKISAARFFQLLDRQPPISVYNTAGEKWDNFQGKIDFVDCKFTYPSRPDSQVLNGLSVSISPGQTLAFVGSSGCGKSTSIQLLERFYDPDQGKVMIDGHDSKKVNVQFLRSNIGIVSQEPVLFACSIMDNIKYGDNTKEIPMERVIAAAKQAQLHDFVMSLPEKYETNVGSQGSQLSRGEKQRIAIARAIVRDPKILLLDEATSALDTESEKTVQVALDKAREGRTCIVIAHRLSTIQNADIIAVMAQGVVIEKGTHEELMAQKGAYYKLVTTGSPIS
# T1 sequence (O95342 whole entry N996A): as the sequence (O95342 whole entry) above, with N996A counted along it
# T3 sequence (O95342 whole entry E1244Q): as the sequence (O95342 whole entry) above, with E1244Q counted along it
compound,measurement,setting,value
"COc1ccc(Cl)cc1C(=O)NCCc1ccc(S(=O)(=O)NC(=O)NC2CCCCC2)cc1 [GBM, glibenclamide]",GBM-stimulated ATPase activity (300 μM GBM),[1],"N996A and S1022F exhibit increased basal ATPase activity compared to the wild-type BSEP, and their activity is stimulated by GBM"
Nc1ncnc2c1ncn2[C@@H]1O[C@H](COP(=O)(O)OP(=O)(O)O)[C@@H](O)[C@H]1O [ADP],cryo-EM structure of vanadate-trapped BSEP at 2.8 Å,[2],trapping ADP and preventing its release from NBS2
Nc1ncnc2c1ncn2[C@@H]1O[C@H](CO[P@@](=O)(O)O[P@](=O)(O)OP(=O)(O)O)[C@@H](O)[C@H]1O [ATP],cryo-EM structure at 3.0 Å,[3],"We observed two distinct EM densities in the two NBSs, each corresponding to an ATP molecule"
same,Km,[4],207 µM
